One may read the IC50 as the concentration needed to halve the response being measured.

One compound from patent US20240360145A1, “PYRIMIDINE-2,4-DIAMINE DERIVATIVES AS WELL AS PREPARATION METHOD THEREFOR AND USE THEREOF” (LISEN THERAPEUTICS, INC., priority 2022, published 2024) can be followed below.

One test concerns NCI-H1975 cells. The experiment in a line: Cell viability IC50 (MTT), Gefitinib-resistant NCI-H1975 cells. The conditions noted are these: Homo sapiens, NCI-H1975, 72 h, read-out: cell viability IC50.
The next test deals with OV-90 (ovarian cancer). Description: Cell viability IC50 (CellTiter-Glo), OV-90. Format: cell-based. The conditions noted are these: Homo sapiens, OV-90, 72 hours. The protocol: (§1) The cancer cell lines were cultured to the logarithmic growth phase according to conventional culture methods, and the cells were inoculated into a 384-well plate at a density of 2,000 cells/well in a volume of 40 μl/well. The concentrations of added compounds were: […], 1.67 μM, 0.56 μM, 0.19 μM, 0.062 μM, 0.021 μM, 0.0069 μM, 0.0023 μM, 0.00076 μM, and 0 μM. After 72 hours, cell viability was detected using the CellTiter-Glo™ Detection Kit.
A general note: Cellular ATP, detected with luciferase, serves as a proxy for viable cell number.

A further test deals with MCF-7 (breast cancer). The experiment in a line: Cell viability IC50 (CellTiter-Glo), MCF-7. The conditions noted are these: Homo sapiens, MCF7, MCF-7, 72 hours. In kind it is cell-based. The protocol:
as §1

In the next test the test system is NCI-H446 cells. The experiment in a line: Cell viability IC50 (CCK-8), small cell lung cancer cell line H446. The conditions noted are these: Homo sapiens, NCI-H446; H446, CCK-8. Format: cell-based. The protocol:
(§2) Small cell lung cancer cell lines DMS114, NCI-H1688, NCI-H82, NCI-H146, and NCI-H446 cells were cultured in RPMI-1640 medium containing 10% fetal bovine serum and 1% penicillin-streptomycin. All the cells were cultured in a constant temperature incubator containing 5% CO2 at 37° C.
(§3) Small cell lung cancer is a highly heterogeneous malignant tumor, and its clinical treatment is mainly based on traditional chemotherapy (mainly platinum medicaments and etoposide). In order to study the anti-tumor activity of the compounds of the present disclosure in small cell lung cancer, the CCK-8 method was used to investigate the cell viability IC50 of compound 8 for five small cell lung cancer cell lines.

The test system of a further test is NCI-H82 cells. The experiment in a line: Cell viability IC50 (CCK-8), small cell lung cancer cell line H82. In kind it is cell-based. The conditions noted are these: Homo sapiens, NCI-H82; H82, CCK-8. How it is done:
as §2, §3

A further test deals with NCI-H1792 cells. Description: Cell viability IC50 (MTT), AMG510-resistant NCI-H1792 cells. Format: cell-based. The conditions noted are these: Homo sapiens, NCI-H1792 cells (KRAS G12C). The protocol: Non-small cell lung cancer cell lines NCI-H1975, NCI-H1650, and NCI-H1792 were cultured in RPMI-1640 medium containing 10% fetal bovine serum and 1% penicillin-streptomycin. 1% sodium pyruvate was additionally added when culturing NCI-H1975 cells. All the cells were cultured in a constant temperature incubator containing 5% CO2 at 37° C.
(1) The cells were cultured to the logarithmic growth phase. When the confluence reached about 90%, the cells were digested with 0.25% trypsin, and complete medium was added to collect the cells. After centrifugation at room temperature, the supernatant was discarded, and the cell precipitate was resuspended with fresh complete medium. […]
(5) The medium was carefully aspirated off, 100 μl of DMSO was added to dissolve the precipitate formed by the reaction with MTT, shaking and mixing to mix the blue-violet crystals well, and the light absorbance value at 492 nm was read with a microplate reader.
(6) IC50 of the compounds for different cells was calculated based on the light absorption value of each group. Specifically, the absorbance value under treatment with different concentrations of compounds was first subtracted from the absorbance value of the blank well, and then the absorbance value of the 0 μM group was taken as 100% to calculate the cell survival rate after treatment with different concentrations of compounds. […]

A further test relates to ASH-3 (thyroid cancer). The experiment in a line: Cell viability IC50 (CellTiter-Glo), ASH-3. Format: cell-based. The conditions noted are these: ASH-3, 72 hours. How it is done:
as §1

Description for NCI-H1975 cells: (1) The cells were cultured to the logarithmic growth phase. […] After centrifugation at room temperature, the supernatant was discarded, and the cell precipitate was resuspended with fresh complete medium. After counting, the cells were placed at room temperature for later use.
(2) The cells were inoculated into a 96-well plate at a density of 4,000 cells/well with a volume of 100 μl/well. The wells at the outermost circle of the plate were not inoculated with cells, and instead, added with sterile water to reduce evaporation of the culture medium.
(3) After overnight culture of the cells, the medium was discarded, and a fresh medium containing different concentrations of compounds was added at 200 μl/well. The dilution method of the compound was as follows: first the compound with the highest concentration of 10 μM was prepared, and then the compound was diluted for 3 times in sequence. […] At the same time, a blank control group was set up, in which only an equal volume of culture medium was added without adding cells. Six replicate wells were set up for each group. The cells were placed in the incubator for further culture.
(4) After 72 hours, 20 μl of MTT solution (5 mg/ml) sterilized by filtration through a 0.22 m filter membrane was added to each well, and the cells were cultured in an incubator at 37° C. for another 4 hours.
(6) IC50 of the compounds for different cells was calculated based on the light absorption value of each group. Specifically, the absorbance value under treatment with different concentrations of compounds was first subtracted from the absorbance value of the blank well, and then the absorbance value of the 0 μM group was taken as 100% to calculate the cell survival rate after treatment with different concentrations of compounds. That is, survival rate=((ODexperimental well−ODblank control)/(ODnegative control−ODblank control))×100%. IC50 values were calculated based on the survival rate and concentration of the compound.

Turning to `CN1CC2CCC(C1)N2Cc1ccc(Nc2ncc(Cl)c(Nc3ccccc3S(=O)(=O)N(C)C)n2)cc1` [Compound 8, 2-((5-chloro-2-((4-((3-methyl-3,8-diazabicyclo[3.2.1]octan-8-yl)methyl)phenyl)amino)pyrimidin-4-yl)amino)-N,N-dimethylbenzenesulfonamide], the IC50 in the test with NCI-H1975 cells was found to be 55.2 nM; in the test with OV-90 (ovarian cancer), 103 nM; with MCF-7 (breast cancer), 52.8 nM; in the test with NCI-H446 cells it was 7.58 nM; in the test with NCI-H82 cells, 5.15 nM; with NCI-H1792 cells it was 40.6 nM. In the test with ASH-3 (thyroid cancer), the IC50 is 44 nM.
